Experimental data as given in patent US11266710B2, “Angio-3 for treatment of retinal angiogenic diseases” (SINGAPORE HEALTH SERVICES PTE LTD, priority 2017, dated 2022).

What was measured:
[1] = test system: KIMBA mice (KIMBA-hVEGF Transgenic); experiment: Retinal angiogenesis (FFA leakage) in KIMBA mice; type: in vivo, mouse; settings: single IVT injection 1 μg in 1 μL
Source text: FIGS. 1A, 1B, 1C and 1D show the efficacy of a single IV dose of angio-3 in attenuating the retinal angiogenesis in KIMBA mice, which have over expression of human VEGF (KIMBA-hVEGF Transgenic). FIG. 1A is a schematic of the experimental design. FIG. 1B are images showing Fundus Fluorescein Angiography (FFA) images of baseline and weekly after post treatment. Digital color fundus photographs were taken using a MICRON IV comprehensive system for rodent retinal imaging (Phoenix Research Labs, Pleasanton, Calif.) after pupil dilatation with topical administration of 1% tropicamide (Alcon Laboratories, Inc., Fort Worth, Tex.) and 2.5% phenylephrine (Bausch and Lomb Pharmaceuticals, Inc., Tampa, Fla.) ophthalmic solutions. […] Readout is the leakage of retinal vascularization post-administration of the drug. n=6 eyes per batch; n=3 batches; Values are expressed as means±s.e.m., **P<0.01, *P<0.05, student's t-test. […] All imaging was performed with a laser-scanning confocal fluorescence microscope.
FIGS. 2A, 2B, 2C and 2D show the efficacy of a single IVT dose of angio-3 and Eylea (anti-VEGF), positive control in attenuating the retinal angiogenesis in KIMBA mice. […] Readout is the leakage of retinal vascularization post-administration of the drug. n=10 eyes per batch; n=2 batches; Values are expressed as means±s.e.m., **P<0.01, *P<0.05, student's t-test. […]

[2] = test system: laser-induced CNV in Cynomolgus monkeys; experiment: Laser-induced CNV model in Cynomolgus monkeys (wet AMD model); type: in vivo, Cynomolgus monkey; settings: 2 mg Angio-3, 2 mg and 4 mg PeptideQ, 2 mg Eylea, single IVT
Method: FIGS. 25A, 25B, 25C, 25D, 25E, and 25F show the results of testing in a laser-induced chorodial neovascularization (CNV) model in Cynomolgus moneys developed as an experimental model of wet AMD. FIG. 25A is a schematic of the study design. FIG. 25B are representative fundus fluorescein angiography (FFA) images of all groups. FIG. 25C is a graph showing change in mean lesion grade of the eye in monkeys treated with a single dose 2 mg of Angio-3, dose 2 mg of anti-VEGF (Eylea), 2 mg of peptide (Q2) and 4 mg of peptide (Q4) and control. […] FIG. 25E is a graph of laser area quantified from the FFA images by ImageJ software. FIG. 25F are graphs of laser volume quantified from PS-OCT images by ImageJ software.
A laser-induced choroidal neovascularization (CNV) model was developed and validated in Cynomolgus monkeys as experimental model of wet AMD. […] The development of active CNV was assessed by fluorescein angiography, at Day 14 the baseline degree of neovascularization and leakiness were measured and the final fluorescein angiography assessment was performed on Day 28. Leakage area was quantified by ImageJ software. The laser volume was quantified by Spectralis-Heidelberg software using SD-OCT images.

Eylea: Eylea (anti-VEGF), positive control; clinical compound [reference compound]
duration of effect in attenuating retinal angiogenesis post treatment [1]: 4 weeks
comparative efficacy between treatment groups [2]: superior efficacy as compared to test peptides
